# Data published in patent US12577234B2, “Antagonists of the muscarinic acetylcholine receptor M4” (Vanderbilt University, priority 2017, dated 2026).
# Key:
# [1] = molecular target: T1, human mAChR M4 (Homo sapiens, UniProt P08173); assay: mAChR M4 cell-based functional assay (calcium mobilization, EC80 acetylcholine), human M4; conditions: for IC50: M4/Gqi5/CHO-K1 cells, decrease of EC80 acetylcholine response; for Emin: human M4, % ACh maximum at 30 μM
# T1 construct: expressed in transfected cells; host or cells: CHO-K1 (ATCC), stably co-expressing chimeric G protein Gqi5
# T1 sequence (P08173 1-479): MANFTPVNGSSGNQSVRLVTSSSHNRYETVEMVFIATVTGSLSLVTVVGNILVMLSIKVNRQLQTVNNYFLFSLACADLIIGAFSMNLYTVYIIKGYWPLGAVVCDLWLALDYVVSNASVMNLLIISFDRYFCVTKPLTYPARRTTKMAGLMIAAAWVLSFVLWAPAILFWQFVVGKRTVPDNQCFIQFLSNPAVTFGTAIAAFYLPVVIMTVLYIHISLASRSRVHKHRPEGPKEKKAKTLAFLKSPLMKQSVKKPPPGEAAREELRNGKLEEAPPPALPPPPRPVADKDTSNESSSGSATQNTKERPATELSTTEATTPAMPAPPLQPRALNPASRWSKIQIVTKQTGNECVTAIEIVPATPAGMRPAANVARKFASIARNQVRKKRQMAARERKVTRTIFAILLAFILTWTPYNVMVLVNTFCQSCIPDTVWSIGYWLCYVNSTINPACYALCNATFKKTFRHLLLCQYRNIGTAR
# Method in brief: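 CHO-K1 cells stably expressing human M4 with chimeric Gqi5; intracellular calcium rise read on FDSS as fluorescence static ratio at 1 Hz. Compounds in 10-point 1:3 dilution series; IC50 taken as concentration-dependent decrease of the EC80 acetylcholine response, four-parameter logistic fit.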
# [2] = molecular target: T2, rat mAChR M4 (Rattus norvegicus, UniProt P08485); assay: mAChR M4 cell-based functional assay (calcium mobilization, EC80 acetylcholine), rat M4; conditions: Table 10; for IC50: M4/Gqi5/CHO-K1 cells, decrease of EC80 acetylcholine response
# T2 construct: expressed in transfected cells; host or cells: CHO-K1 (ATCC), stably co-expressing chimeric G protein Gqi5
# T2 sequence (P08485 1-478): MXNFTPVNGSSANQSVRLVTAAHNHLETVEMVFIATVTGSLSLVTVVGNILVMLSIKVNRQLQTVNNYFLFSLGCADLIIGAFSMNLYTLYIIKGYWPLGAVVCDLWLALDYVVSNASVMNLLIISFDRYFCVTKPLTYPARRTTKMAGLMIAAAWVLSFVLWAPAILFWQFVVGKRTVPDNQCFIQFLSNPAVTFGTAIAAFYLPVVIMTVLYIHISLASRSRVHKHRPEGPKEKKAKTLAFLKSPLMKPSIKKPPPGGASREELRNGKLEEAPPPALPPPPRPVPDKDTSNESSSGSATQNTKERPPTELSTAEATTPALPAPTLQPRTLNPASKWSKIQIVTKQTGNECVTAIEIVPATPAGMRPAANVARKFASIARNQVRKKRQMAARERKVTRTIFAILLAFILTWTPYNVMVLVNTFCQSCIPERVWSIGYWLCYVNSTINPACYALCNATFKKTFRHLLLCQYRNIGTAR
# Method: Human or rat M4 cDNA, along with the chimeric G protein Gqi5, were transfected into Chinese hamster ovary (CHO-K1) cells purchased from the American Type Culture Collection using Lipofectamine2000. M4/Gqi5/CHO cells were grown in Ham's F-12 medium containing 10% heat-inactivated fetal bovine serum (FBS), 20 mM HEPES, 500 μg/mL G418 sulfate, and 200 μg/mL Hygromycin B.
# For high throughput measurement of agonist-evoked increases in intracellular calcium, CHO-K1 cells stably expressing muscarinic receptors were plated in growth medium lacking G418 and hygromycin at 15,000 cells/20 μL/well in Greiner 384-well black-walled, tissue culture (TC)-treated, clear-bottom plates (VWR). Cells were incubated overnight at 37° C. and 5% CO2. The next day, cells were washed using an ELX 405 (BioTek) with assay buffer; the final volume was then aspirated to 20 μL. Next, 20 μL of a 2.3 μM stock of Fluo-4/acetoxymethyl ester (Invitrogen, Carlsbad, CA), prepared as a 2.3 mM stock in DMSO and mixed in a 1:1 ratio with 10% (w/v) Pluronic F-127 and diluted in assay buffer, was added to the wells and the cell plates were incubated for 50 min at 37° C. and 5% CO2. Dye was removed by washing with the ELX 405 and the final volume was aspirated to 20 μL. Compound master plates were formatted in a 10 point concentration-response curve (CRC) format (1:3 dilutions) in 100% DMSO with a starting concentration of 10 or 1 mM using a BRAVO liquid handler (Agilent). Test compound CRCs were then transferred to daughter plates (240 nL) using the Echo acoustic plate reformatter (Labcyte, Sunnyvale, CA) and then diluted into assay buffer (40 μL) to a 2× stock using a Thermo Fisher Combi (Thermo Fisher Scientific, Waltham, MA).
# Calcium flux was measured using the Functional Drug Screening System (FDSS) 6000 or 7000 (Hamamatsu Corporation, Tokyo, Japan) as an increase in the fluorescent static ratio. Compounds were applied to cells (20 μL, 2×) using the automated system of the FDSS at 2 seconds into the protocol and the data were collected at 1 Hz. At 143 s, 10 μL of an EC20 concentration of the muscarinic receptor agonist acetylcholine was added (5×), followed by the addition of 12 μL of an EC80 concentration of acetylcholine at the 268 s time point (5×). Agonist activity was analyzed as a concentration-dependent increase in calcium mobilization upon compound addition. Positive allosteric modulator activity was analyzed as a concentration-dependent increase in the EC20 acetylcholine response. Antagonist activity was analyzed as a concentration-dependent decrease in the EC80 acetylcholine response; for the purposes of the tables herein, an IC50 (inhibitory concentration 50) was calculated as a concentration-dependent decrease of the response elicited by an EC80 concentration of acetylcholine. Concentration-response curves were generated using a four-parameter logistical equation in XLFit curve fitting software (IDBS, Bridgewater, NJ) for Excel (Microsoft, Redmond, WA) or Prism (GraphPad Software, Inc., San Diego, CA) or the Dotmatics software platform (Dotmatics, Bishop's Stortford, UK).
Human M4 Emin ([1]; Table 10) [%],IC50 ([1]; Table 10) [nM],Rat M4 Emin [2] [%],IC50 [2] [nM],IC50 ([1]; Table 9) [nM],Emin ([1]; Table 9) [%],Compound
4,5.32,8,490,–,–,"c1cc(C2CC2)ncc1-c1ccc(N[C@H]2C[C@@H]3CN(CC4CCOCC4)C[C@@H]3C2)nn1 [Compound 232, (3aR,5s,6aS)-N-[6-(6-cyclopropyl-3-pyridyl)pyridazin-3-yl]-2-(tetrahydropyran-4-ylmethyl)-3,3a,4,5,6,6a-hexahydro-1H-cyclopenta[c]pyrrol-5-amine]"
3,19.8,3,313,–,–,"CC(C)(C)CCN1C[C@H]2C[C@H](Oc3ccc(-c4cc(F)ccc4Cl)nn3)C[C@H]2C1 [Compound 137, (3aR,5s,6aS)-5-[6-(2-chloro-5-fluoro-phenyl)pyridazin-3-yl]oxy-2-(3,3-dimethylbutyl)-3,3a,4,5,6,6a-hexahydro-1H-cyclopenta[c]pyrrole]"
4,91.2,4,195,–,–,"CC(=O)Nc1ccc(-c2ccc(O[C@H]3C[C@@H]4CN(CCC(C)(C)C)C[C@@H]4C3)nn2)cc1 [Compound 129, N-[4-[6-[[(3aR,5s,6aS)-2-(3,3-dimethylbutyl)-3,3a,4,5,6,6a-hexahydro-1H-cyclopenta[c]pyrrol-5-yl]oxy]pyridazin-3-yl]phenyl]acetamide]"
5,8.4,13,2230,–,–,"c1cc(-c2ccc(N[C@H]3C[C@@H]4CN(CC5CCOCC5)C[C@@H]4C3)nn2)cs1 [Compound 227, (3aR,5s,6aS)-2-(tetrahydropyran-4-ylmethyl)-N-[6-(3-thienyl)pyridazin-3-yl]-3,3a,4,5,6,6a-hexahydro-1H-cyclopenta[c]pyrrol-5-amine]"
5,1.08,3,17.1,–,–,"CC(=O)Nc1ccc(-c2ccc(N[C@H]3C[C@@H]4CN(CCC(C)(C)C)C[C@@H]4C3)nn2)cc1 [Compound 140, N-[4-[6-[[(3aR,5s,6aS)-2-(3,3-dimethylbutyl)-3,3a,4,5,6,6a-hexahydro-1H-cyclopenta[c]pyrrol-5-yl]amino]pyridazin-3-yl]phenyl]acetamide]"
3,5,6,63.6,–,–,"COc1ccc(-c2ccc(N[C@H]3C[C@@H]4CN(CC5CCOCC5)C[C@@H]4C3)nn2)cc1F [Compound 222, (3aR,5s,6aS)-N-[6-(3-fluoro-4-methoxy-phenyl)pyridazin-3-yl]-2-(tetrahydropyran-4-ylmethyl)-3,3a,4,5,6,6a-hexahydro-1H-cyclopenta[c]pyrrol-5-amine]"
–,–,–,–,3790,17.2,"Cc1cnn(C)c1-c1ccc(NC[C@H]2C[C@@H]3CN(CC4CCOCC4)C[C@@H]3C2)nn1 [Compound 66, N-[[(3aR,5s,6aS)-2-(tetrahydropyran-4-ylmethyl)-3,3a,4,5,6,6a-hexahydro-1H-cyclopenta[c]pyrrol-5-yl]methyl]-6-(2,4-dimethylpyrazol-3-yl)pyridazin-3-amine]"
6,1.82,–,–,–,–,"Cc1noc(C)c1-c1ccc(N[C@H]2C[C@@H]3CN(CCC(C)(C)C)C[C@@H]3C2)nn1 [Compound 142, (3aR,5s,6aS)-2-(3,3-dimethylbutyl)-N-[6-(3,5-dimethylisoxazol-4-yl)pyridazin-3-yl]-3,3a,4,5,6,6a-hexahydro-1H-cyclopenta[c]pyrrol-5-amine]"
5,54.3,–,–,–,–,"Fc1ccc(Cl)c(-c2ccc(N[C@H]3C[C@@H]4CN(Cc5cnccn5)C[C@@H]4C3)nn2)c1 [Compound 170, (3aR,5s,6aS)-N-[6-(2-chloro-5-fluoro-phenyl)pyridazin-3-yl]-2-(pyrazin-2-ylmethyl)-3,3a,4,5,6,6a-hexahydro-1H-cyclopenta[c]pyrrol-5-amine]"
16,44.8,–,–,–,–,"CN(C)C(=O)c1ccc(-c2ccc(N[C@H]3C[C@@H]4CN(CC5CCOCC5)C[C@@H]4C3)nn2)cc1 [Compound 207, 4-[6-[[(3aR,5s,6aS)-2-(tetrahydropyran-4-ylmethyl)-3,3a,4,5,6,6a-hexahydro-1H-cyclopenta[c]pyrrol-5-yl]amino]pyridazin-3-yl]-N,N-dimethyl-benzamide]"
3,0.8,–,–,–,–,"c1cc(N2CCCCC2)nnc1N[C@H]1C[C@@H]2CN(CC3CCOCC3)C[C@@H]2C1 [Compound 193, (3aR,5s,6aS)-N-[6-(1-piperidyl)pyridazin-3-yl]-2-(tetrahydropyran-4-ylmethyl)-3,3a,4,5,6,6a-hexahydro-1H-cyclopenta[c]pyrrol-5-amine]"
–,–,–,–,45.8,3.96,"Cc1nn(C)cc1-c1ccc(N[C@H]2C[C@@H]3CN(Cc4ccccn4)C[C@@H]3C2)nn1 [Compound 9, (3aR,5s,6aS)-N-[6-(1,3-dimethylpyrazol-4-yl)pyridazin-3-yl]-2-(2-pyridylmethyl)-3,3a,4,5,6,6a-hexahydro-1H-cyclopenta[c]pyrrol-5-amine]"
4,6.93,–,–,–,–,"COc1ccc(-c2ccc(N[C@H]3C[C@@H]4CN(CC5CCOCC5)C[C@@H]4C3)nn2)cn1 [Compound 224, (3aR,5s,6aS)-N-[6-(6-methoxy-3-pyridyl)pyridazin-3-yl]-2-(tetrahydropyran-4-ylmethyl)-3,3a,4,5,6,6a-hexahydro-1H-cyclopenta[c]pyrrol-5-amine]"

Compound,Human M4 Emin ([1]; Table 10) [%],IC50 ([1]; Table 10) [nM],Rat M4 Emin [2] [%],IC50 [2] [nM],IC50 ([1]; Table 9) [nM],Emin ([1]; Table 9) [%]
"CC(C)(C)CCN1C[C@H]2C[C@H](Oc3ccc(Cl)nn3)C[C@H]2C1 [Compound 128, (3aR,5s,6aS)-5-(6-chloropyridazin-3-yl)oxy-2-(3,3-dimethylbutyl)-3,3a,4,5,6,6a-hexahydro-1H-cyclopenta[c]pyrrole]",5,1090,17,6330,–,–
